The source of these data is patent US20210228523A1, “MODULATORS OF SESTRIN-GATOR2 INTERACTION AND USES THEREOF” (Navitor Pharmaceuticals, Inc., priority 2017, published 2021).

One experiment relates to Male Sprague Dawley rats. Description: Female Urine Sniffing Test (FUST). The format is in vivo, rat. The following applies: Example A, 24 hrs post-dose; for time spent sniffing female urine (FUST): mean±SEM, n=8. The method, then: Behavioral Analysis Using the Female Urine Sniffing Test (FUST): The FUST was conducted according to published procedures (Malkesman, O. et al, Biol Psychiatry 67(9): 864-71 (2010)), 24 hr post-dosing. Briefly, rats were habituated for 60 min to a cotton swab dipped in tap water in their home cage. Next, rats were exposed to a 2nd cotton swab dipped in tap water and 45 min later they were exposed to a 3rd cotton swab infused with fresh rat urine from 11 to 14-week-old female rats in estrus. The total time (s) spent sniffing the cotton-tipped applicator was quantitated over 5 min for each animal.
Study Design. Thirty-two (32) male Sprague Dawley Male rats weighing between 175 and 200 g were randomized into 4 study groups (n=8/treatment group), following a 5-day acclimation period. On study day 0, rats received a single dose of either saline (Sal) or ketamine (Ket) in Groups 1 and 2, respectively, by intraperitoneal injection (i.p.). The rats in Group 3 and 4 received a single dose of the NV-5138 vehicle (Veh, 0.5% Methylcellulose/0.1% Tween-80) or NV-5138 (160 mg/kg), respectively, by oral gavage. All rats were subjected to the FUST on day 1, 24 hrs after dosing. On day 2, 48 hrs after dosing, the LMA of all rats was measured in an open field. Rats were then fasted for 20 hrs and subjected to the NSFT, 72 hrs post-dose.
Preparation of Test Articles. Ket (Sigma, cat #K1884) was dissolved in Sal at a concentration of 10 mg/mL. A volume of 1 ml/kg of Sal or Ket was injected i.p. for Groups 1 and 2, respectively. NV-5138 (Navitor, lot #06) was prepared by dissolving in Veh (0.5% methylcellulose/0.1% Tween-80) at a concentration of 50 mg/mL. The dosing volume based on the weight of the animal (3.2 mL/kg) of Veh or NV-5138 was administered by oral gavage to study animals in Groups 3 and 4, respectively. Test articles were prepared the day of dosing.

Experiment [1] concerns synaptic proteins (GluR1, Synapsin 1, PSD95). The experiment can be described thus: Western blot of synaptic proteins in crude synaptosomes from rat prefrontal cortex. The format is in vivo. The following applies: for levels of GluR1 in crude PFC synaptosomes / levels of PSD95 in crude PFC synaptosomes / levels of Synapsin 1 in crude PFC synaptosomes: Example B, 24 hr after administration. The method, then:
Study Design. Forty-eight (48) male Sprague Dawley rats weighing between 175 and 200 g were randomized into 8 study groups (n=6/group), following a 5-day acclimation period. On study day 0, rats in Groups 3 and 7 received a single dose of Sal while Groups 4 and 8 received a single dose of Ket (10 mg/kg) each by i.p. injection. […] One hour after dosing, rats in Groups 1-4 were sacrificed by conscious decapitation and followed by collection of the PFC. Crude synaptosomes were prepared from the PFC and three mTORC1 substrates, pmTOR, pp70S6K and p4E-BP1, and corresponding total protein loading controls (mTOR, p70S6K, and GAPDH) were quantitated by WB. Twenty-four hours after dosing, rats in Groups 5-8 were sacrificed by conscious decapitation and collection of the PFC. Crude synaptosomes were prepared from the PFC and the synaptic proteins (GluR1 and PSD95), as well as the total protein loading control (GAPDH), were quantitated by WB.
Prefrontal Cortex Synaptosome Preparations. The brain was dissected from rats in all groups (n=6/group) and rinsed in PBS. The PFC was collected as shown in FIG. 6 and homogenized at 4° C. in homogenization buffer (0.32 M sucrose, 20 mM HEPES at pH 7.4, 1 mM EDTA, 5 mM NaF, 1 mM NaVO3 and protease inhibitor cocktail (Roche; Ser. No. 19/543,200)). The homogenate was centrifuged for 10 min at 2,800 rpm at 4° C. after which the supernatant was removed and re-centrifuged at 12,000 rpm for 10 min at 4° C. The resulting pellet containing crude synaptosomes was re-suspended in Lysis buffer (50 mM Tris-HCl (pH 7.5), 150 mM NaCl, 1% Triton X-100, 0.1% SDS, 2 mM, EDTA, 1 mM NaVO3, 5 mM NaF and protease inhibitor cocktail) and sonicated on ice for 20 s at 50% amplitude. The protein concentration was determined by Bradford assay and all samples were mixed with loading buffer (60 mM Tris-HCl pH 6.8, 20 mM DTT, 2% SDS, 10% glycerol, 5% β-mercaptoethanol and 0.01% Bromophenol blue) and stored at -20° C. until WB analysis.
Western Blot Analysis: Western blot analysis for GluR1, PSD95 and GAPDH was performed as previously described. Briefly, synaptosomes preparations (15 μg total protein) were loaded into 10-15% SDS PAGE gel for electrophoresis and transferred to a polyvinylidene difluoride (PVDF) membrane in transfer buffer (10× premixed electrophoresis buffer contains 25 mM Tris, 192 mM glycine, pH 8.3; Bio-Rad). The PVDF membranes were blocked for 1 hr at room temperature with blocking buffer (2% BSA in PBS-T (10 mM Phosphate, pH 7.4, 2.7 mM KCl, 137 mM NaCl and 0.1% Tween-20)) and subsequently incubated with primary antibodies: rabbit anti-pmTOR at 1:1000 (Cell Signaling; #5536), rabbit anti-mTOR at 1:1000 (Cell Signaling; #2972), rabbit anti-pp70S6K at 1:1000 (Cell Signaling; #9205), rabbit anti-p70S6K at 1:1000 (Cell Signaling; #2708), rabbit anti-p4E-BP1 at 1:1000 (Cell Signaling; #2855), rabbit anti-GluR1 at 1:1000 (Cell Signaling; #13185), rabbit anti-Synapsin 1 at 1:1000 (Cell Signaling; #5297), rabbit anti-PSD95 at 1:1000 (Cell Signaling; #9644) and rabbit anti-GAPDH at 1:1000 (Cell Signaling; #5174) in blocking buffer overnight at 4° C. The next day, membranes were washed 3 times in PBS-T buffer and incubated with horseradish peroxidase conjugated anti-mouse or anti-rabbit secondary antibody at 1:5000 to 1:10000 (Vector Laboratories Inc) for 1 hr. After final three washes with PBS-T buffer, bands were detected using enhanced chemiluminescence. The blots then were incubated in the stripping buffer (2% SDS, 100 mM β-mercaptoethanol, 50 mM Tris-HCl pH 6.8) for 30 min at 50-55° C. followed by three washes with PBS-T buffer. The stripped blots were kept in blocking solution for 1 hr and incubated with the primary antibody directed against total levels of the respective protein or GAPDH for loading control. Densitometric analysis of phospho- and total immunoreactivity for each protein was conducted using NIH Image J software. […]
For orientation: Immunoblotting shows a protein as a band on a membrane.

In the case of `CNC1(c2ccccc2Cl)CCCCC1=O` (stereo not drawn) [Ket, ketamine, reference compound], the “time spent sniffing female urine (FUST)” value in the experiment on Male Sprague Dawley rats (Ket 10 mg/kg i.p. single dose) came out at 36.5 ± 7.9 s. In addition, the “increase in time spent sniffing female urine vs Sal” value with Male Sprague Dawley rats (Ket 10 mg/kg i.p. single dose, p<0.05) turned out to be 2.1 fold. In addition, in experiment [1] (Ket 10 mg/kg i.p.), the “levels of GluR1 in crude PFC synaptosomes” value was “significantly increased”, the “levels of PSD95 in crude PFC synaptosomes” value is “significantly increased” and the “levels of Synapsin 1 in crude PFC synaptosomes” value is “significantly increased”.
Take `CC(C)(C[C@H](N)C(=O)O)C(F)F` [NV-5138]: the “time spent sniffing female urine (FUST)” value with Male Sprague Dawley rats (NV-5138 160 mg/kg oral single dose) is 33.8 ± 2.9 s. In addition, the “increase in time spent sniffing female urine vs Veh” value with Male Sprague Dawley rats (NV-5138 160 mg/kg oral single dose, p<0.01) is given as 2.9 fold. In experiment [1] (NV-5138 160 mg/kg oral), the “levels of GluR1 in crude PFC synaptosomes” value is “significantly increased”, the “levels of PSD95 in crude PFC synaptosomes” value is on record as “trend toward increased expression” and the “levels of Synapsin 1 in crude PFC synaptosomes” value is reported as “significantly increased”. The “GluR1 in crude PFC synaptosomes” value in experiment [1] (Example E, CUS rats, NV-5138 160 mg/kg oral, 24 hrs after second dose (day 5), p<0.01) is “normalization”. Also, the “PSD95 in crude PFC synaptosomes” value in experiment [1] (Example E, CUS rats, NV-5138 160 mg/kg oral, 24 hrs after second dose (day 5), p<0.05) is reported as “normalization”.
